# Biological target: NaV1.2 (Rattus norvegicus, UniProt P04775)
# Sequence (P04775 whole entry, looked up): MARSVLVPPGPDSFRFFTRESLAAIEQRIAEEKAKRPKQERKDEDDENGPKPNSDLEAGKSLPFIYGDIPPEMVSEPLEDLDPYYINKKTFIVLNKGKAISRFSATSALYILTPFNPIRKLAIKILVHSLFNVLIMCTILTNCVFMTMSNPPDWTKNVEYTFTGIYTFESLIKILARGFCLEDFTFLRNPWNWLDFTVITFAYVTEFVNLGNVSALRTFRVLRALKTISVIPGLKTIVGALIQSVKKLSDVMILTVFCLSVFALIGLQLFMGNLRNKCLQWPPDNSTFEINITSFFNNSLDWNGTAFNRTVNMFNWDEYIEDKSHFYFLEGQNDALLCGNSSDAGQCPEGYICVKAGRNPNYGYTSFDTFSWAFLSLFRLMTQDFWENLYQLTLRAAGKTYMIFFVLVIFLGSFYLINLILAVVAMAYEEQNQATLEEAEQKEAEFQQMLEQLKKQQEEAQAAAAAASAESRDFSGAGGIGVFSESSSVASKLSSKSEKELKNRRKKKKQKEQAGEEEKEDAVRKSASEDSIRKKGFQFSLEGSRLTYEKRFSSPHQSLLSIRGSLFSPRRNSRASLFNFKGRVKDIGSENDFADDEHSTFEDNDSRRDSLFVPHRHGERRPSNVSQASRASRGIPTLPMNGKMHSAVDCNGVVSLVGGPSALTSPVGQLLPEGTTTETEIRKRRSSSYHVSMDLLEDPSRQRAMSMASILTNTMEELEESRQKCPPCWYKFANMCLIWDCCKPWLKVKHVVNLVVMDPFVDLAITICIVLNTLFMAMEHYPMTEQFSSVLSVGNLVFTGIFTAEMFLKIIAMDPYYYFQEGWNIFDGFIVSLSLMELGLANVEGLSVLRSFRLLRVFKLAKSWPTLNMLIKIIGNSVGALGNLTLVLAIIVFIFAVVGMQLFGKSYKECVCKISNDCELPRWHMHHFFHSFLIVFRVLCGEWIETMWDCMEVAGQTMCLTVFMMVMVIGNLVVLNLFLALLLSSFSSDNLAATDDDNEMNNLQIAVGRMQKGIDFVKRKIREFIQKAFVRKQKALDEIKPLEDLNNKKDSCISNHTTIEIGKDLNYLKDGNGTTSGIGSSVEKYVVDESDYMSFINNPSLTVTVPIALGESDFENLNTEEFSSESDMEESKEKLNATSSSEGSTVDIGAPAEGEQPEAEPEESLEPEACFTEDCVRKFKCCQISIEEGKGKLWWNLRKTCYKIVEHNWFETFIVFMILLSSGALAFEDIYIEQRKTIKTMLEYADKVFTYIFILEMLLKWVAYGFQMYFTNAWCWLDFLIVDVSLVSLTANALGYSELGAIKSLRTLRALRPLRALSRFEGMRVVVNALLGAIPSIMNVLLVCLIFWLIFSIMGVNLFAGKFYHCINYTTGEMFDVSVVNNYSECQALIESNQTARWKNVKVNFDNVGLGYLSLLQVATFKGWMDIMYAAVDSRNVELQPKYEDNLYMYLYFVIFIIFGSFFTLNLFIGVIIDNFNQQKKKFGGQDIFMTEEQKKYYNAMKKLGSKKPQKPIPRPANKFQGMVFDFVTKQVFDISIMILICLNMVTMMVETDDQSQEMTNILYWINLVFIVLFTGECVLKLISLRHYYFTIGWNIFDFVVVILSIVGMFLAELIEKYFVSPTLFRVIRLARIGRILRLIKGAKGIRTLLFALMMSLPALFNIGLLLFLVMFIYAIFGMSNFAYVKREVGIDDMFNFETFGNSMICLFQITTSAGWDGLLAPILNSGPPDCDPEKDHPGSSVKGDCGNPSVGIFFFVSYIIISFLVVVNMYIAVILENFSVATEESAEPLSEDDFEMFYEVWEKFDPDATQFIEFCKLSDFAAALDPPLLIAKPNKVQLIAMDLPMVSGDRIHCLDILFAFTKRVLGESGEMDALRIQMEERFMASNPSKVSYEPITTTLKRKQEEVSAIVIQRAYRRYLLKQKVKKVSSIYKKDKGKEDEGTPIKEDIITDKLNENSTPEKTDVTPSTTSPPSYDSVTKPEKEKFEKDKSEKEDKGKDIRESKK
compound,measurement,value
"NC1=N[C@H](O)[C@H]2[C@H]3O[C@]4(O)O[C@@H]([C@@H](O)[C@@]2(N1)[C@@H]4O)[C@]3(O)CO [TTX, Tetrodotoxin]",block of residual INa persisting with KIIIA or KIIIA[K7A],completely blocked

# — publication PMC2878737 (Channels (Austin, Tex.), 2009)
